Measurements taken from article PMC9304929, “The Cholesterol-Binding Sequence in Monomeric C-Reactive Protein Binds to the SARS-CoV-2 Spike Receptor-Binding Domain and Blocks Interaction With Angiotensin-Converting Enzyme 2” (Frontiers in Immunology, 2022).

System: SARS-CoV-2 spike RBD
Assay: Spike RBD-mCRP binding ELISA
Conditions: His-tagged proteins expressed in E. coli, n = 3
Method: The interactions of the spike-RBD with mCRP or CRP were also examined by enzyme-linked immunosorbent assay (ELISA) using mCRP/CRP-specific mAbs. Briefly, 100 μL of spike-RBD (1μg/mL) in Tris-buffered saline (TBS; 10 mM Tris, 140 mM NaCl, pH 7.4) was added per well to coat in 96-well microplates overnight at 4°C. The wells were then washed three times with TBS containing 0.02% Tween-20 for 5 min and blocked with 1% bovine serum albumin (BSA) in TBS for 1 h at 37°C. Next, mCRP was added and the plates were incubated for 1 h at 37°C. The color was developed by adding tetramethyl benzidine (TMB) to the wells and the color development was stopped with 1 M H2SO4.

## WT mCRP
  binding of mCRP wild type or mutants to the spike RBD (ELISA): bound
